Assay results: patent US20120095059A1, “Compositions and Methods for Treating Type II Diabetes and Related Disorders” (priority 2010, published 2012)

Key:
[1] = system: patients with type 2 diabetes mellitus; settings: monotherapy; Rosenstock et al., Diabetes Care 25:1529-1533 (2002); cited from earlier work
[2] = system: patients with advanced type 2 diabetes; test: Predicted effect of adding metformin as a third agent, based upon a meta-analysis of metformin clinical trials; assay type: in vivo, human; settings: metformin added as third agent to pioglitazone plus glimepiride
From the text: Patients having HbA1c levels greater than 7% have a high risk for developing cardiovascular disease and other complications of diabetes. Thus, in these patients, it is necessary to add a third agent to the regimen in order to obtain HbA1c values below 7%. Based upon a meta-analysis of metformin clinical trials, the addition of metformin as a third agent to this regimen will produce an additional reduction in HbA1c of about 1% and will contribute to adequate glycemic control in such patients with advanced type 2 diabetes. The addition of metformin in this triple therapy provides a synergistic mechanism of action, both improving insulin sensitivity and suppressing hepatic glucose output.

[3] = system: patients with type 2 diabetes; test: 12-week, double blind, randomized, parallel group, multi-center study of pioglitazone, glimepiride or their combination; assay type: in vivo, human; settings: after 12 weeks, pioglitazone 15 mg per day, glimepiride 2 mg per day, or both; for HbA1c levels, change from baseline: baseline HbA1c greater than 8%
Description: Objective: […] Research Design and Methods: The study was a 12-week, double blind, randomized, parallel group, multi-center study, with 120 patients randomized to receive pioglitazone (15 mg per day), glimepiride (2 mg per day), or a combination of pioglitazone plus glimepiride (15 mg per day; 2 mg per day). Patients started a strict dietary regimen 1 week before receiving the first dose of each treatment. The study was open to patients with type 2 diabetes mellitus and having HbA1c levels greater than 8%. Patients were over 30 years of age and have had diabetes for at least 1 year.

Q: For `CC(C)[C@H]1CC[C@H](C(=O)N[C@H](Cc2ccccc2)C(=O)O)CC1` [nateglinide], which “reduction in HbA1c” value [1] is on record?
A: 0.6%

Q: With `CN(C)C(=N)N=C(N)N` [metformin] as the molecule, how does the “additional reduction in HbA1c” value [2] read?
A: about 1%

Q: With `CCc1ccc(CCOc2ccc(CC3SC(=O)NC3=O)cc2)nc1` (stereo not drawn) [pioglitazone] as the molecule, how does the “fasting blood glucose, decrease from baseline” value [3] read?
A: -28 mg/dL

Q: What about the “HbA1c levels, change from baseline” value [3] of the same molecule?
A: −0.14%

Q: For `CCC1=C(C)CN(C(=O)NCCc2ccc(S(=O)(=O)NC(=O)N[C@H]3CC[C@H](C)CC3)cc2)C1=O` [glimepiride], which “fasting blood glucose, decrease from baseline” value [3] is on record?
A: -22 mg/dL

Q: And the “HbA1c levels, change from baseline” value [3]?
A: −0.98%
